Measured values: patent US20250382556A1, “MODULATION OF THE BRANCHED-CHAIN METABOLITE CONTENT OF FRUITS AND VEGETABLES” (BOARD OF TRUSTEES OF MICHIGAN STATE UNIVERSITY, priority 2024, published 2025)

Test system: flowering quince peel
Assay: Free amino acid content of flowering quince peel via UPLC-MS/MS after AHAS inhibitor treatment
Type: in vivo, Chaenomeles x superba
Set-up: key to free asparagine content compared to control / free aspartate content compared to control / free cysteine content compared to control / free glutamate content compared to control / free glutamine content compared to control / free glycine content compared to control / free lysine content compared to control / free phenylalanine content compared to control / free threonine content compared to control / free tryptophan content compared to control / free tyrosine content compared to control / free alanine content compared to control / free arginine content compared to control: —: Dash indicates no significant difference between treatments
Procedure: Whole apple fruit, freshly harvested and at an early stage of ripening (‘ripening’), were held at room temperature (22° C.) and rubbed daily with 3 mL of a freshly made 1mM solution of the inhibitor rimsulfuron (N-((4,6-dimethoxypyrimidin-2-yl)aminocarbonyl)-3-(ethylsulfonyl)-2-pyridinesulfonamide, made from DuPont MATRIX® SG, 25% w/w active ingredient; 0.1% Tween 20) or water solution containing 0.1% Tween 20 before preparation with further treatments. Flowering quince fruit were smaller than the apple fruit and had 2 mL of the control and treatment solutions applied daily at 22° C. ‘Gala’, ‘Empire’, and ‘Jonagold’ apple fruit were treated for four, nine, and seven days before further preparation, respectively. Flowering quince fruit were treated for six days before analysis. Headspace volatile emissions were monitored for three or four representative fruits during the incubation/treatment period to determine appropriate times for further treatments. During method testing, 1 mM solutions of the imidazolinone imazamox was also assessed with apple fruit (2-[4,5-dihydro-4-methyl-4-(1-methylethyl)-5-oxo-1H-imidazol-2-yl]-5-(methoxymethyl)-3-pyridinecarboxylic acid, made from RAPTOR®, 12.1% w/w active ingredient; 0.1% Tween 20).
After volatile analysis, apple peel disks, collected peel of flowering quince, and ‘Valery’ pulp section samples were held at −80° C. for further amino acid analysis.
Frozen samples were ground to a powder in liquid nitrogen-chilled mortar and pestles. About 500 mg of tissue was vortexed for 10 sec in 2 mL of room temperature (22° C.) extraction solution (1:1:1 water:acetonitrile:ethanol, v/v/v) spiked with 2 nmoles of U-^13C,^15N labeled amino acids (MilliporeSigma) as internal standards and heated for 15 min in a 65° C. water bath. Extracts were briefly chilled on ice before centrifugation at 4400×g for 15 min at 4° C. The supernatant was filtered by centrifugation (0.2 μm nylon centrifugal filter; Costar, Corning) at 21000×g for 5 min at room temperature. 10 μL of the filtrate was transferred to an autosampler vial and diluted 100-fold with 990 μL of 10.1 mM perfluorohexanoic acid (PFHA) spiked with […] of internal standard. Thus the final concentration of internal standard was ˜2 μM.
An amino acid standard series was prepared from a premade mixture (MilliporeSigma, AAS18) that contained equal molar amounts of cystine and all 20 proteinogenic amino acids save for tryptophan, asparagine, glutamine, and cysteine. An equal molar mixture of tryptophan, asparagine, glutamine, and cysteine was subsequently prepared. To avoid dilution errors or artefacts from differing buffers, these amino acid stocks were aliquoted and desiccated such that a five-part standard series ranging from 250 μM to 25 nM would be produced upon resuscitation with 10 μL of spiked extraction buffer and 990 μL spiked PFHA solution.
Samples and amino acids were held overnight at −20° C. before analysis. Amino acids were analyzed with a Xevo TQ-S Micro UPLC (H-Class)-MS/MS (Waters) at the Michigan State University Mass Spectrometry and Metabolomics Core. Conditions were as follows. HPLC column: Acquirt UPLC HSS T3, 2.1×100 mm, 1.7 μm particle size (Waters), with a 0.2 μm pre-column filter (Waters). Mobile phase: A) 10 mM PFHA in water, B) acetonitrile. LC gradient: linear gradient, slope setting=6, flow rate=0.3 mL·min^−1, step 1) 0 min, 100% A, 0% B, 2) 1 min, 100% A, 0% B, 3) 8 min, 35% A, 65% B, 4) 8.01 min, 10% A, 90% B, 5) 9 min, 10% A, 90% B, 6) 9.01 min, 100% A, 0% B, 7) 13 min, 100% A, 0% B. Column temp: 40° C. Autosampler temp: 10° C. Injection volume: 10 μL. Tune parameters: electrospray ionization, standard ESI probe, capillary voltage=+1.0 kV, source temp=120° C., desolvation temp=350° C., desolvation gas=800 L·hr^−1, cone gas=40 L·hr^−1. MS collection was split into three phases and were adjusted after checking the retention time of several samples; however proline was missed for apple and flowering quince samples. […]

[1] = Dr. Banks Pink flowering quince peel, 1 mM daily, six days

**Q.** Which “free alanine content compared to control” value [1] does the source give for CCS(=O)(=O)c1cccnc1S(=O)(=O)NC(=O)Nc1nc(OC)cc(OC)n1 [rimsulfuron, N-((4,6-dimethoxypyrimidin-2-yl)aminocarbonyl)-3-(ethylsulfonyl)-2-pyridinesulfonamide] here?
**A.** —

**Q.** And the “free arginine content compared to control” value [1]?
**A.** —

**Q.** What about the “free asparagine content compared to control” value [1] of the same compound?
**A.** —

**Q.** And the “free aspartate content compared to control” value [1]?
**A.** —

**Q.** What about the “free cysteine content compared to control” value [1] of the same compound?
**A.** —

**Q.** And the “free glutamate content compared to control” value [1]?
**A.** —

**Q.** What about the “free glutamine content compared to control” value [1] of the same compound?
**A.** —

**Q.** What about the “free glycine content compared to control” value [1] of the same compound?
**A.** —

**Q.** And the “free histidine content compared to control” value [1]?
**A.** 166.5 ± 20.1%

**Q.** What about the “free isoleucine content compared to control” value [1] of the same compound?
**A.** 51.3 ± 9.1%

**Q.** What about the “free leucine content compared to control” value [1] of the same compound?
**A.** 81.9 ± 5.4%

**Q.** What about the “free lysine content compared to control” value [1] of the same compound?
**A.** —

**Q.** And the “free methionine content compared to control” value [1]?
**A.** 245.3 ± 38.5%

**Q.** And the “free phenylalanine content compared to control” value [1]?
**A.** —

**Q.** What about the “free serine content compared to control” value [1] of the same compound?
**A.** 302.1 ± 32.0%

**Q.** What about the “free threonine content compared to control” value [1] of the same compound?
**A.** —

**Q.** What about the “free tryptophan content compared to control” value [1] of the same compound?
**A.** —

**Q.** And the “free tyrosine content compared to control” value [1]?
**A.** —

**Q.** What about the “free valine content compared to control” value [1] of the same compound?
**A.** 28.1 ± 3.8%

**Q.** What about the leucine content reduced (flowering quince peel tissue) of the same compound?
**A.** 18.1%

**Q.** What about the “total content of free amino acids” value (flowering quince peel tissue) of the same compound?
**A.** not significantly altered

**Q.** And the “valine and isoleucine collectively reduced” value (flowering quince peel tissue)?
**A.** 64.2%
